# Measured values: patent US20250221930A1, “A COMPOSITION COMPRISING LIPID NANOPARTICLES AND AN ANTIFUNGAL POLYENE” (INSTITUT NATIONAL DE LA SANTÉ ET DE LA RECHERCHE MÉDICALE, priority 2022, published 2025)
# How the values were obtained:
# [1] = system: L. ramosa; assay: Checkerboard MICs of AmB, ISA and PEG15HS in solution; assay type: cell-based, Lichtheimia ramosa; conditions: RPMI, 24 h at 37° C.
# Protocol: AmB minimum inhibitory concentrations (MIC) of each strain of Mucorales was measured in RPMI in the presence of different concentrations of ISA or PEG15HS as described by the EUCAST broth microdilution antifungal susceptibility test methodology with modification for the checkerboard procedure. Checkerboards were performed by adding 100 μL of two-fold dilutions of AmB (0.008 to 4 mg/L) and ISA (0.008 to 4 mg/L) or PEG15HS (0.04 to 2752 mg/L) in 96 well plates. One hundred microliters of a spore suspension at a concentration of 105 spores/mL were added to the wells, and the plates were incubated for 24 h at 37° C. […] Three experiments were performed for each strain.
# AmB MIC of each strain of Mucorales was measured in RPMI in the presence of different concentrations of ISA and a constant concentration of PEG15HS (100 times the concentration of AmB) as described by the EUCAST broth microdilution antifungal susceptibility test methodology with modification for the checkerboard procedure. Checkerboards were performed by adding 100 μL of two-fold dilutions of AmB (0.008 to 4 mg/L)+PEG15HS (0.8 to 400 mg/L) and ISA (0.008 to 4 mg/L) in 96 well plates. One hundred microliters of a spore suspension at a concentration of 105 spores/mL were added to the wells, and the plates were incubated for 24 h at 37° C. […] Three experiments were performed for each strain. […]
# [2] = system: Lichtheimia ramosa; assay: MIC of AmB in solution with blank lipid nanoparticles (BLNPs), EUCAST broth microdilution; assay type: cell-based; conditions: AmB in solution in RPMI, without PEG15HS LNPs
# Protocol: MICs for each fungi were measured in the presence of different concentrations of AmB (solubilized in the LNP suspensions or loaded in the LNP) as described by the EUCAST broth microdilution antifungal susceptibility test methodology (EUCAST DEFINITIVE DOCUMENT E.Def 9.3.2 Apr. 2020. EUCAST antifungal MIC method for mould).
# A clinical isolate of Lichtheimia ramosa was used. Isolate were subcultured from frozen stocks (−80° C.) on 75 cm^3 flasks containing 15 ml of Sabouraud dextrose agar (Sigma-Aldrich, St. Quentin Fallavier, France) during 3 days at 37° C. Spores were collected by flooding the flask with 10 mL of sterile water. The suspensions were filtered on nylon filter (Millipore, Carrigtwohill, Ireland) with pore size of 11 μm to remove hyphal elements. The concentration of the spore suspensions was then adjusted in sterile water to obtain inocula of 2×10^5 spores/mL.
# The MIC of the formulations for Lichtheimia ramosa was assayed.
# [3] = system: Lichtheimia corymbifera; assay: EUCAST MICs of AmB, ISA, AmB-loaded LNPs and AmB-ISA-loaded LNPs; assay type: cell-based; conditions: 24 h at 37° C.
# Protocol: (§1) Briefly, a mass (80-120 mg) of an oil phase consisting of triglycerides (Labrafac®, or tributyrin in different mass ratios, i.e. 100% Labrafac® to 100% tributyrin) was supplemented with AmB (0,025 to 0.2 mg) and ISA (0.25 to 5 mg) and then mixed with 80 to 120 mg of PEG15HS (Solutol HS15®) and 500 to 800 μl of water to form an oil-in-water emulsion. This emulsion was then heated to 85° C., to obtain a water-in-oil emulsion, and then cooled to 40° C. Three such temperature cycles were performed and the system was then fast cooled to 4° C. The formulated nanoparticles were then characterized by size distribution and mean zeta potential measurements. Examples of formulations of LNPs loaded with AmB and AmB-ISA are detailed in Table 5:
# (§2) Rhizopus arrhizus 1, Lichtheimia corymbifera and Lichtheimia ramosa strains were used. These correspond to the most frequently encountered species in human mucormycosis. These three strains were isolated from patients suffering from pulmonary mucormycosis.
# (§3) MICs of AmB in solution, ISA in solution, AmB-loaded LNPs, and AmB-ISA-loaded LNPs were evaluated according to the European Committee on Antimicrobial Susceptibility Testing (EUCAST) guidelines. Briefly, MICs were determined by adding 100 μL of two-fold dilutions of AmB in solution, ISA in solution, AmB-LNPs or AmB-ISA-LNPs (0.008 to 4 mg/L) in 96-well plates. One hundred microliters of a spore suspension at a concentration of 105 spores/mL were added to the wells, and the plates were incubated for 24 h (Mucorales) or 48 h (A. fumigatus) at 37° C. […] Three experiments were performed for each strain.
# [4] = system: Rhizopus arrhizus 1; assay: as above; assay type: cell-based; conditions: 24 h at 37° C.
# Protocol: as §1, §2, §3
# [5] = system: Lichtheimia ramosa; assay: as above; assay type: cell-based; conditions: 24 h at 37° C.
# Protocol: as §1, §2, §3
# [6] = system: Cryptococcus neoformans; assay: EUCAST MICs of AmB alone and AmB formulated in LNPs; assay type: cell-based
# Protocol: This medium was sterilized using a 0.22 μm pore-size filter.
# AmB powder (Sigma-Aldrich) was dissolved in dimethyl sulfoxide to obtain a stock solution at 1000 mg/L, stored at −80° C. for six months.
# On the day of use, AmB and freshly made AmB-loaded LNPs were diluted in RPMI medium to obtain the desired concentrations. The AmB-loaded LNPs were prepared as detailed in Example 5.
# MICs of AmB alone and AmB formulated in LNPs were evaluated according to the European Committee on Antimicrobial Susceptibility Testing (EUCAST) guidelines. Briefly, MICs were determined by adding 100 μL of two-fold dilutions of AmB (0.008 to 4 mg/L) and LNPs-AmB (0.04 to 1024 mg/L) in 96-well plates. One hundred microliters of a fungal suspension at a final concentration of 10^5 CFU/mL was added to the wells, and the plates were incubated for 48 h at 30° C. MICs, defined as the lowest concentration of AmB inhibiting 90% of the growth of the fungal strain, were read after […] of incubation by measuring absorbance at 530 nm with an Infinite M200 Pro microplate reader (Tecan®, France). Three experiments were performed for each strain.
# [7] = system: Aspergillus fumigatus; assay: EUCAST MICs of AmB, ISA, AmB-loaded LNPs and AmB-ISA-loaded LNPs; assay type: cell-based; conditions: 48 h at 37° C.
# Protocol: as §1
# Two reference strains (ATCC 16424 and ATCC 204305) and a clinical azole-resistant strain (AfR2) of Aspergillus fumigatus were used.
# as §3
smiles,measurement,setting,value
"C[C@@H]1[C@H](O)[C@@H](C)/C=C/C=C/C=C/C=C/C=C/C=C/C=C/[C@H](O[C@@H]2O[C@H](C)[C@@H](O)[C@H](N)[C@@H]2O)C[C@@H]2O[C@](O)(C[C@@H](O)C[C@@H](O)[C@H](O)CC[C@@H](O)C[C@@H](O)CC(=O)O[C@H]1C)C[C@H](O)[C@H]2C(=O)O [AmB, amphotericin B]",MIC of AmB,[1],1 µg/mL
same,MIC of AmB,[2],0.5 µg/mL
same,MIC (AmB),[3],1 µg/mL
same,MIC (AmB),[4],1 µg/mL
same,MIC (AmB),[5],1 µg/mL
same,effect on growth of the cryptococci at concentrations below the MIC,[6],had no effect on the growth profile
same,MIC,[6]; all the isolates (eight clinical strains),0.25 to 1 µg/mL
same,MIC,"[6]; strain C1, 90% growth inhibition, absorbance at 530 nm",0.5 µg/mL
same,MIC,"[6]; strain C2, 90% growth inhibition, absorbance at 530 nm",0.25 µg/mL
same,MIC,"[6]; strain C3, 90% growth inhibition, absorbance at 530 nm",0.5 µg/mL
same,MIC,"[6]; strain C4, 90% growth inhibition, absorbance at 530 nm",0.5 µg/mL
same,MIC,"[6]; strain C5, 90% growth inhibition, absorbance at 530 nm",1 µg/mL
same,MIC,"[6]; strain C6, 90% growth inhibition, absorbance at 530 nm",1 µg/mL
same,MIC,"[6]; strain C7, 90% growth inhibition, absorbance at 530 nm",1 µg/mL
same,MIC,"[6]; strain C8, 90% growth inhibition, absorbance at 530 nm",1 µg/mL
same,MIC (AmB),[7]; A. fumigatus 20 (ATCC 204305),2 µg/mL
same,MIC (AmB),[7]; A. fumigatus R2 (clinical azole-resistant strain AfR2),2 µg/mL
same,MIC (AmB),[7]; Aspergillus fumigatus 16 (ATCC 16424),2 µg/mL
